Assay results reported in patent publication US20230250066A1, “HERBICIDAL CINNOLINE DERIVATIVES” (SYNGENTA CROP PROTECTION AG, priority 2020, published 2023).

Assays:
Assay type in all cases: in vivo
[1] = tested on: Amaranthus retoflexus (AMARE); assay: Pre-emergence herbicidal test; conditions: 1000 g/ha, evaluated after 13 days
Setaria faberi (SETFA) [2] = assay: Pre-emergence herbicidal test; conditions: 1000 g/ha, evaluated after 13 days
[3] = tested on: Echinochloa crus-galli (ECHCG); assay: Pre-emergence herbicidal test; conditions: 1000 g/ha, evaluated after 13 days
[4] = tested on: Ipomoea hederacea (IPOHE); assay: Pre-emergence herbicidal test; conditions: 1000 g/ha, evaluated after 13 days
[5] = tested on: Abutilon theophrasti (ABUTH); assay: Pre-emergence herbicidal test; conditions: 1000 g/ha, evaluated after 13 days
Zea mays (ZEAMX) [6] = assay: Pre-emergence herbicidal test; conditions: 1000 g/ha, evaluated after 13 days
[7] = tested on: Abutilon theophrasti (ABUTH); assay: Post-emergence herbicidal test; conditions: 1000 g/ha unless otherwise stated, evaluated after 13 days
Experimental: (§1) Seeds of a variety of test species are sown in standard soil in pots (Amaranthus retoflexus (AMARE), Solanum nigrum (SOLNI), Setaria faberi (SETFA), Lolium perenne (LOLPE), Echinochloa crus-galli (ECHCG), Ipomoea hederacea (IPOHE), Abutilon theophrasti (ABUTH), Zea mays (ZEAMX)). After 8 days cultivation under controlled conditions in a glasshouse (at 24° C./16° C., day/night; 14 hours light; 65% humidity), the plants are sprayed with an aqueous spray solution derived from the formulation of the technical active ingredient in acetone/water (50:50) solution containing 0.5% Tween 20 (polyoxyethelyene sorbitan monolaurate, CAS RN 9005-64-5). Compounds are applied at 1000 g/ha unless otherwise stated. The test plants are then grown in a glasshouse under controlled conditions in a glasshouse (at 24° C./16° C., day/night; 14 hours light; 65% humidity) and watered twice daily. After 13 days the test is evaluated for the percentage damage caused to the plant. The biological activities are shown in the following table on a five-point scale (5=81-100%; 4=61-80%; 3=41-60%; 2=21-40%; 1=10-20%; 0=0%;−=not tested).

[8] = tested on: Amaranthus retoflexus (AMARE); assay: Post-emergence herbicidal test; conditions: 1000 g/ha unless otherwise stated, evaluated after 13 days
Experimental: as §1

[9] = tested on: Echinochloa crus-galli (ECHCG); assay: Post-emergence herbicidal test; conditions: 1000 g/ha unless otherwise stated, evaluated after 13 days
Experimental: as §1

[10] = tested on: Ipomoea hederacea (IPOHE); assay: Post-emergence herbicidal test; conditions: 1000 g/ha unless otherwise stated, evaluated after 13 days
Experimental: as §1

Setaria faberi (SETFA) [11] = assay: Post-emergence herbicidal test; conditions: 1000 g/ha unless otherwise stated, evaluated after 13 days
Experimental: as §1

Zea mays (ZEAMX) [12] = assay: Post-emergence herbicidal test; conditions: 1000 g/ha unless otherwise stated, evaluated after 13 days
Experimental: as §1

SMILES	percentage damage caused to the plant, five-point scale, AMARE [1]	percentage damage caused to the plant, five-point scale, SETFA (Setaria faberi (SETFA) [2])	percentage damage caused to the plant, five-point scale, ECHCG [3]	percentage damage caused to the plant, five-point scale, IPOHE [4]	percentage damage caused to the plant, five-point scale, ABUTH [5]	percentage damage caused to the plant, five-point scale, ZEAMX (Zea mays (ZEAMX) [6])	percentage damage caused to the plant, ABUTH (five-point scale) [7]	percentage damage caused to the plant, AMARE (five-point scale) [8]	percentage damage caused to the plant, ECHCG (five-point scale) [9]	percentage damage caused to the plant, IPOHE (five-point scale) [10]	percentage damage caused to the plant, SETFA (five-point scale) (Setaria faberi (SETFA) [11])	percentage damage caused to the plant, ZEAMX (five-point scale) (Zea mays (ZEAMX) [12])
CS(=O)(=O)c1cccc2c1c(=O)c(C(=O)O)nn2-c1ccc(Cl)cc1Cl [Compound P43, 1-(2,4-dichlorophenyl)-5-methylsulfonyl-4-oxo-cinnoline-3-carboxylic acid]	0 (0=0%)	4 (4=61-80%)	2 (2=21-40%)	1 (1=10-20%)	0 (0=0%)	0 (0=0%)	2 (2=21-40%)	1 (1=10-20%)	3 (3=41-60%)	1 (1=10-20%)	4 (4=61-80%)	1 (1=10-20%)
CCOC(=O)c1nn(-c2ccc(Cl)cc2Cl)c2cccc(S(C)(=O)=O)c2c1=O [Compound P44, ethyl 1-(2,4-dichlorophenyl)-5-methylsulfonyl-4-oxo-cinnoline-3-carboxylate]	1 (1=10-20%)	4 (4=61-80%)	2 (2=21-40%)	0 (0=0%)	0 (0=0%)	0 (0=0%)	1 (1=10-20%)	1 (1=10-20%)	4 (4=61-80%)	1 (1=10-20%)	4 (4=61-80%)	1 (1=10-20%)
CCOC(=O)c1nn(-c2ccc(OC(F)(F)F)cc2)c2ccc(Br)c(SC)c2c1=O [Compound P53, ethyl 6-bromo-5-methylsulfanyl-4-oxo-1-[4-(trifluoromethoxy)phenyl]cinnoline-3-carboxylate]	1 (1=10-20%)	1 (1=10-20%)	1 (1=10-20%)	0 (0=0%)	1 (1=10-20%)	–	1 (1=10-20%)	0 (0=0%)	1 (1=10-20%)	1 (1=10-20%)	0 (0=0%)	0 (0=0%)
